Results published in ChEMBL document CHEMBL1156140, “Synthesis and antitumor-evaluation of cyclopropyl-containing combretastatin analogs” (Bioorg Med Chem Lett, 2009).

Assays:
HeLa = assay: Cytotoxicity against human HeLa cells by MTT assay; assay type: functional, cell-based
MCF7 = assay: Cytotoxicity against human MCF7 cells by MTT assay; assay type: functional, cell-based

Row | SMILES | IC50 (HeLa; Homo sapiens, HeLa) [nM] | IC50 (MCF7; Homo sapiens, MCF7) [nM] | IC50 (HeLa; hela) [nM] | IC50 (MCF7; mcf7) [nM]
1 | COc1ccc(/C=C\c2cc(OC)c(OC)c(OC)c2)cc1N | 0.53 | 3.5 |  | 
2 | COc1ccc(C#Cc2cc(OC)c(OC)c(OC)c2)cc1O | 1540 | 1640 |  | 
3 | COCOc1cc(C#Cc2cc(OC)c(OC)c(OC)c2)ccc1OC | 26800 | 25600 |  | 
4 | COc1ccc(C2CC2c2cc(OC)c(OC)c(OC)c2)cc1NC(=O)[C@@H](N)CO (stereo not given in full) [listing 1 of 2 here] |  |  | 32 | 63
5 | COc1ccc(C2CC2c2cc(OC)c(OC)c(OC)c2)cc1NC(=O)OC(C)(C)C (stereo not given) | 10100 | 11800 |  | 
6 | COc1ccc(C#Cc2cc(OC)c(OC)c(OC)c2)cc1NC(=O)OC(C)(C)C | > 30000 | > 30000 |  | 
7 | COc1ccc(C2CC2c2cc(OC)c(OC)c(OC)c2)cc1OP(=O)(OCc1ccccc1)OCc1ccccc1 (stereo not given) | 10200 | 10800 |  | 
8 | COc1ccc(/C=C\c2cc(OC)c(OC)c(OC)c2)cc1OP(=O)(OCc1ccccc1)OCc1ccccc1 | 246 | 1170 |  | 
9 | COCOc1cc(C2CC2c2cc(OC)c(OC)c(OC)c2)ccc1OC (stereo not given) | 24000 | 14000 |  | 
10 | COc1ccc(/C=C\c2cc(OC)c(OC)c(OC)c2)cc1NC(=O)OC(C)(C)C | 1170 | 3850 |  | 
11 | COc1ccc(C2CC2c2cc(OC)c(OC)c(OC)c2)cc1N (stereo not given) | 41 | 212 |  | 
12 | COCOc1cc(/C=C\c2cc(OC)c(OC)c(OC)c2)ccc1OC | 197 | 269 |  | 
13 | COc1ccc(C#Cc2cc(OC)c(OC)c(OC)c2)cc1N | > 30000 | > 30000 |  | 
14 | COc1ccc([C@@H]2C[C@@H]2c2cc(OC)c(OC)c(OC)c2)cc1O | 28 | 102 |  | 
15 | COc1ccc(C2CC2c2cc(OC)c(OC)c(OC)c2)cc1NC(=O)[C@@H](N)CO (stereo not given in full) [listing 2 of 2 here] |  |  | 432 | 670
16 | COc1ccc(C2CC2c2cc(OC)c(OC)c(OC)c2)cc1OP(=O)(O)O (stereo not given) | 370 | 297 |  | 
17 | COc1ccc(/C=C\c2cc(OC)c(OC)c(OC)c2)cc1NC(=O)[C@@H](N)CO |  |  | 3.7 | 25
18 | COc1ccc(/C=C\c2cc(OC)c(OC)c(OC)c2)cc1O [COMBRETASTATIN A4] | 0.51 | 2.4 |  | 
19 | COc1ccc(/C=C\c2cc(OC)c(OC)c(OC)c2)cc1OP(=O)(O)O [FOSBRETABULIN DISODIUM] | 0.43 | 2 |  | 
20 | COc1ccc(/C=C\c2cc(OC)c(OC)c(OC)c2)cc1NC(=O)[C@@H](N)CO [OMBRABULIN] |  |  | 0.72 | 3.1
